≈ marks a conversion by molar mass, not a printed value.
Experiments:
[1] = test system: P. falciparum K1 strain (Thailand resistant to chloroquine); assay: semiautomated microdilution assay, [3H]-hypoxanthine incorporation, K1 strain; format: cell-based, Plasmodium falciparum; conditions: K1 strain, 72 h incubation
How it was run: (§1)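 Intraerythrocytic stages from unsynchronised stock cultures are exposed to test compounds in a semiautomated microdilution format, and fifty percent inhibitory concentrations are then fitted by logit regression.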

[2] = test system: P. falciparum NF54 strain (sensitive to standard antimalarials); assay: semiautomated microdilution assay, [3H]-hypoxanthine incorporation, NF54 strain; format: cell-based, Plasmodium falciparum; conditions: NF54 strain, 72 h incubation
How it was run: as §1

[3] = test system: ANKA strain of P. berghei; assay: single dose STI in vivo screen in infected mice; design: species or system Plasmodium berghei; conditions: for Activity (%) po / Survival (days) po: single 10 mg/kg po in 3% ethanol and 7% Tween 80; for Activity (%) po / Activity (%) sc / Activity (%) SSVpo: mice; for Activity (%) sc / Survival (days) sc: single 10 mg/kg sc in 3% ethanol and 7% Tween 80; for Activity (%) SSVpo: single po dose in standard suspending vehicle (SSV); for Survival (days) po / Survival (days) sc / Survival (days) SSVpo: untreated control 5.6 ± 0.3; for Survival (days) SSVpo: single po dose in SSV
How it was run: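 Groups of 3-5 Moro SPF or NMRI mice infected with the ANKA strain of P. berghei received a single dose of trioxolane on day one post-infection. The compound was given in 3% ethanol and 7% Tween 80 or in SSV (0.5% w/v CMC, 0.5% v/v benzyl alcohol, 0.4% v/v Tween 80, 0.9% w/v sodium chloride in water). Antimalarial activity was scored as percent reduction in parasitemia on day three and as survival time versus untreated controls. Survival to day 30 counted as cure.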

[4] = test system: Schistosoma mansoni adult schistosomes (49-day-old); assay: effect on adult schistosomes (49-day-old) in mice; format: in vivo; conditions: for % reduction of adult worms growth at day 49 after per os application of 400 mg/kg, TWR (%) / adult worms at day 49, per os 400 mg/kg, DEAD WORM (%): single 400 mg/kg per os; for Tox (mice): infected mice
Procedure: Mice were infected with 100 Schistosoma mansoni cercariae […]. Each group was treated per os with OZ compounds at single doses of 200, 400, and 600 mg/kg. […] All groups were killed 4 weeks after treatment and the liver and intestine were removed and separated. The liver and intestine were compressed and alive male and female worms could be seen and counted.

[5] = percent reduction in parasitemia day 3 post-infection
[6] = percent reduction in parasitemia day 3 post-infection, 10 mg/kg

Row | Structure (SMILES) | IC50 (ng/ml) K1 [1] | IC50 (ng/ml) NF54 [2] | Activity (%) po [3, 5] | Activity (%) sc [3, 5] | Activity (%) SSVpo [3, 5] | Survival (days) po [3] | Survival (days) sc [3] | Survival (days) SSVpo [3] [days] | % reduction of adult worms growth at day 49 after per os application of 400 mg/kg, TWR (%) [4] [%] | adult worms at day 49, per os 400 mg/kg, DEAD WORM (%) [4] [%] | Activity (%) po [3, 6] [%] | Activity (%) sc [3, 6] [%] | Survival (days) po ([3]; 10 mg/kg) [days] | Survival (days) sc ([3]; 10 mg/kg) [days] | Tox (mice) ([4]; 200 mg/kg per os) | Tox (mice) ([4]; 400 mg/kg per os) | % reduction of adult worms growth at day 49 after per os application of 200 mg/kg, TWR (%) ([4]; single 200 mg/kg per os) | adult worms at day 49, per os 200 mg/kg, DEAD WORM (%) ([4]; single 200 mg/kg per os) | Activity (%) 3 mg/kg SSV po ([3]; percent reduction in parasitemia day 3 post-infection, single 3 mg/kg po in SSV) [%] | Survival (days) 10 mg/kg SSV po ([3]; single 10 mg/kg po in SSV) [days]
1 | Clc1ccc(C2(c3ccc(Cl)cc3)OOC3(O2)C2CC4CC(C2)CC3C4)cc1 (stereo not shown) [OZ43] | 11 ng/mL (≈ 26.4 nM) | 7.5 ng/mL (≈ 18 nM) | 99.97% | 97% | 18% | 8.9 days | 7.3 days | 5.4 | 1 | 0 | – | – | – | – | – | – | – | – | – | –
2 | CC(=O)N1CCC2(CC1)OOC1(O2)C2CC3CC(C2)CC1C3 (stereo not shown) [OZ49] | 0.82 ng/mL (≈ 2.67 nM) | 0.93 ng/mL (≈ 3.03 nM) | 81% | 85% | – | 6.7 days | 7.3 days | – | 17 | 10 | – | – | – | – | – | – | – | – | – | –
3 | NC(=O)OC1CCC2(CC1)OOC1(O2)C2CC3CC(C2)CC1C3 (stereo not shown) [OZ107] | 1.0 ng/mL (≈ 3.09 nM) | 0.30 ng/mL (≈ 0.928 nM) | 70% | 99.74% | 32% | 6.3 days | 8.0 days | 6.3 | 26 | 4 | – | – | – | – | – | – | – | – | – | –
4 | O=C1COC2(CCC3(CC2)OOC2(O3)C3CC4CC(C3)CC2C4)OC1 (stereo not shown) [OZ130] | 0.62 ng/mL (≈ 1.77 nM) | 0.94 ng/mL (≈ 2.68 nM) | 98.8% | 98.6% | 98.9% | 9.0 days | 7.3 days | 8.0 | 0 | 8 | – | – | – | – | – | – | – | – | – | –
5 | O=C(CO)N1CCC2(CC1)OOC1(O2)C2CC3CC(C2)CC1C3 (stereo not shown) [OZ83] | 0.30 ng/mL (≈ 0.928 nM) | 0.60 ng/mL (≈ 1.86 nM) | 92% | 99.8% | 78% | 7.0 days | 8.0 days | 6.3 | 7 | 19 | – | – | – | – | – | – | – | – | – | –
6 | CC1(C)COC(c2ccc([C@H]3CC[C@]4(CC3)OOC3(O4)C4CC5CC(C4)CC3C5)cc2)=N1 (stereo partly shown) [OZ154] | 5.0 ng/mL (≈ 11.4 nM) | 6.1 ng/mL (≈ 13.9 nM) | – | – | 81% | – | – | 8.7 | 58 | 0 | 99.74 | 59 | 14.7 | 7.7 | – | – | – | – | – | –
7 | O=C(OC[C@H]1CC[C@]2(CC1)OOC1(O2)C2CC3CC(C2)CC1C3)N1CCN(c2ccccc2)CC1 (stereo partly shown) [OZ148] | 17 ng/mL (≈ 35.2 nM) | 16 ng/mL (≈ 33.2 nM) | 38% | 21% | 58% | 7.3 days | 6.3 days | 7.7 | 25 | 0 | – | – | – | – | – | – | – | – | – | –
8 | CCN(CC)CC[C@H]1CC[C@]2(CC1)OOC1(O2)C2CC3CC(C2)CC1C3 (stereo partly shown) [OZ126] | 0.20 ng/mL (≈ 0.55 nM) | 0.50 ng/mL (≈ 1.38 nM) | 55% | 99.44% | 72% | 7.0 days | 8.5 days | 6.7 | 0 | 9 | – | – | – | – | – | – | – | – | – | –
9 | O=S1(=O)CCC2(CC1)OOC1(O2)C2CC3CC(C2)CC1C3 (stereo not shown) [OZ50] | 1.1 ng/mL (≈ 3.5 nM) | 1.2 ng/mL (≈ 3.82 nM) | 77% | 97% | 57% | 7.0 days | 7.3 days | 5.7 | 12 | 4 | – | – | – | – | – | – | – | – | – | –
10 | O=C(C[C@H]1CC[C@]2(CC1)OOC1(O2)C2CC3CC(C2)CC1C3)N1CCOCC1 (stereo partly shown) [OZ189] | 1.7 ng/mL (≈ 4.34 nM) | 3.0 ng/mL (≈ 7.66 nM) | 95% | 98% | 99.79% | 9.3 days | 10.7 days | 9.0 | – | – | – | – | – | – | *Tox: 2/3 | Tox: 3/3 ^ | 0 | 17 | – | –
11 | c1ccc(C2CCC3(CC2)OOC2(O3)C3CCCC2CCC3)cc1 (stereo not shown) [OZ67] | >100/>100 ng/ml | >100/>100 ng/ml | 0/NA/0% | 0/NA/0% | – | 5.0/NA/5.0 days | 5.0/NA/5.0 days | – | 38 | 0 | – | – | – | – | – | – | – | – | – | –
12 | O=[N+]([O-])c1cccc(C2(c3cccc([N+](=O)[O-])c3)OOC3(O2)C2CC4CC(C2)CC3C4)c1 (stereo not shown) [OZ105] | 5.4 ng/mL (≈ 12.3 nM) | – | 16% | 28% | 0% | 5.7 days | 6.3 days | 5.7 | 8 | 0 | – | – | – | – | – | – | – | – | – | –
13 | Fc1ccc(NC2CCC3(CC2)OOC2(O3)C3CC4CC(C3)CC2C4)cc1 (stereo not shown) [OZ201] | 2.0 ng/mL (≈ 5.36 nM) | 3.1 ng/mL (≈ 8.3 nM) | 100/100/100% | 100/100/100% | 100/100/100% | 13 days | 25 days | 10.3 | – | – | – | – | – | – | – | – | – | – | – | –
14 | CCOC(=O)c1cccc([C@H]2CC[C@]3(CC2)OOC2(O3)C3CC4CC(C3)CC2C4)c1 (stereo partly shown) [OZ208] | 6.0 ng/mL (≈ 14.5 nM) | 6.5 ng/mL (≈ 15.8 nM) | 0% | 10% | 29% | 6.3 days | 5.7 days | 6.7 | – | – | – | – | – | – | – | – | – | – | – | –
15 | O=CN1CCN(C(=O)C[C@H]2CC[C@]3(CC2)OO[C@]2(O3)C3CC4CC(C3)CC2C4)CC1 [OZ294] | 0.39 ng/mL (≈ 0.932 nM) | 0.63 ng/mL (≈ 1.51 nM) | – | – | – | – | – | – | – | – | – | – | – | – | – | – | – | – | 70 | 8.6
16 | O=C(NCCO)[C@H]1CC[C@]2(CC1)OOC1(O2)C2CC3CC(C2)CC1C3 (stereo partly shown) [OZ155] | 12 ng/mL (≈ 34.1 nM) | > 10 ng/mL | 53% | 73% | 53% | 6.3 days | 8.3 days | 7.0 | – | – | – | – | – | – | – | – | – | – | – | –
17 | c1ccc2c(c1)CCCC21OOC2(O1)C1CC3CC(C1)CC2C3 (stereo not shown) [OZ84] | 1.4 ng/mL (≈ 4.48 nM) | 2.1 ng/mL (≈ 6.72 nM) | 92% | 99.99% | – | 7.7 days | 14.7 days | – | – | – | – | – | – | – | – | – | – | – | – | –

From US6906205B2, “Spiro and dispiro 1,2,4-trioxolane antimalarials” (Medicines for Malaria Venture MMV, priority 2002, dated 2005)
